Among the data in PubChem BioAssay (NCI) are GI50 and TGI values, retold here.

Where “and” joins values, the source holds several entries; their conditions need not be identical. Identical values can stand only once.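 Where inhibition never reached the appropriate level, the endpoint shown equals the highest concentration tested. Otherwise, values were interpolated linearly from a five-concentration, 48-hour dose response in 96-well plates. GI50 is the concentration that inhibits growth by half. The concentration for full growth arrest is given as TGI.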

Some test systems named below: M14 melanoma; NCI-H522 lung; NCI/ADR-RES ovarian; OVCAR-8 ovarian; BT-549 breast; LOX IMVI melanoma; NCI-H226 lung; OVCAR-5 ovarian; SK-MEL-28 melanoma; EKVX NSCLC.
Test in all cases: NCI-60 cell line screen, 48 h

Consider `O=c1cccc(C#CCCCCOC2CCCO2)o1` (stereo not given), for which the GI50 was 9.49 µM in the experiment on M14 melanoma; 3.77 µM in the experiment on NCI-H522 lung; 12.2 µM with NCI/ADR-RES ovarian; 14.2 µM with OVCAR-8 ovarian; 3.35 µM in the experiment on BT-549 breast; 32.6 µM in the experiment on LOX IMVI melanoma. Also, the GI50 with NCI-H226 lung was 17.8 µM; in the experiment with OVCAR-5 ovarian, 19.7 µM; in the experiment with SK-MEL-28 melanoma it was 23.9 µM; in the experiment with EKVX NSCLC it was 8.27 µM. In addition, the TGI with M14 melanoma was above 27.9 µM; in the experiment with NCI-H522 lung, above 64.9 µM; in the experiment on NCI/ADR-RES ovarian, above 18 µM; in the experiment on OVCAR-8 ovarian, above 80.7 µM; in the experiment with BT-549 breast it was 26.4 µM; in the experiment on LOX IMVI melanoma it was above 74.5 µM. Also, the TGI with NCI-H226 lung is 56.2 µM; in the experiment with OVCAR-5 ovarian, above 41.2 µM; with SK-MEL-28 melanoma it was above 56.8 µM; in the experiment with EKVX NSCLC, 39 µM.

As for `C=CCSc1n[nH]c(-c2cccs2)n1`, the GI50 with M14 melanoma, in the experiment on NCI-H522 lung, with NCI/ADR-RES ovarian, with OVCAR-8 ovarian, in the experiment with BT-549 breast and with LOX IMVI melanoma was above 100 µM each time. Besides, the GI50 in the experiment on NCI-H226 lung, with OVCAR-5 ovarian, with SK-MEL-28 melanoma and with EKVX NSCLC was above 100 µM in each case. In addition, the TGI in the experiment on M14 melanoma, in the experiment with NCI-H522 lung, in the experiment on NCI/ADR-RES ovarian, in the experiment on OVCAR-8 ovarian, with BT-549 breast and with LOX IMVI melanoma was above 100 µM in each case. Moreover, the TGI in the experiment on NCI-H226 lung, in the experiment with OVCAR-5 ovarian, with SK-MEL-28 melanoma and in the experiment on EKVX NSCLC was above 100 µM each time.

In the case of `C=CC1=C(C)C2=NC1=CC1=NC(=C(CC)/C1=C/O)C=C1C=C3C(=O)C(C(=O)OC)C(=C4NC(=C2)C(C)C4CCC(=O)OC/C=C(\C)CCCC(C)CCCC(C)CCCC(C)C)C3=N1` (stereo not given) (tested in a mixture with another compound), the TGI in the experiment with M14 melanoma was above 100 µM; in the experiment on NCI-H522 lung, 73 µM; in the experiment with NCI/ADR-RES ovarian, above 100 µM; with OVCAR-8 ovarian, above 100 µM; with BT-549 breast, above 100 µM; in the experiment with LOX IMVI melanoma, above 100 µM. In addition, the TGI with NCI-H226 lung, in the experiment with OVCAR-5 ovarian, with SK-MEL-28 melanoma and with EKVX NSCLC was above 100 µM each time.

As for `C=C1CC2(OC1=O)c1ccccc1CCc1ccccc12`, the TGI in the experiment with M14 melanoma is 3.91 µM; with NCI-H522 lung, 3.14 µM; in the experiment on NCI/ADR-RES ovarian it was 3.04 µM; in the experiment with OVCAR-8 ovarian it was 9.9 µM; in the experiment on BT-549 breast it was 3.78 µM; in the experiment with LOX IMVI melanoma it was 2.9 µM. Moreover, the TGI with NCI-H226 lung turned out to be 26.8 µM; in the experiment with OVCAR-5 ovarian it was 27.7 µM; in the experiment on SK-MEL-28 melanoma, 3.35 µM; in the experiment with EKVX NSCLC it was 20.3 µM.

For `CCC(=S)N(C)O`, the TGI in the experiment on M14 melanoma was above 100 µM; in the experiment on NCI-H522 lung it was 8.28 µM; in the experiment on NCI/ADR-RES ovarian, above 100 µM; in the experiment on OVCAR-8 ovarian it was above 97.1 µM; with BT-549 breast, above 100 µM; in the experiment on LOX IMVI melanoma it was 51.8 µM. For the same compound, the TGI with NCI-H226 lung, in the experiment with OVCAR-5 ovarian, with SK-MEL-28 melanoma and with EKVX NSCLC was above 100 µM each time.

In the case of `CC/C(=C(\c1ccc(O)cc1)c1ccc(OCCNC)cc1)c1ccccc1`, the GI50 is 1.8 µM and 1.75 µM and 1.86 µM with M14 melanoma; 1.78 µM and 1.5 µM and 1.97 µM in the experiment on NCI-H522 lung; 2.6 µM and 2.55 µM and 2.5 µM in the experiment on NCI/ADR-RES ovarian; 2.6 µM and 2.18 µM and 2.4 µM in the experiment with OVCAR-8 ovarian; 2.39 µM and 1.84 µM and 3.33 µM with BT-549 breast; 1.47 µM and 1.45 µM and 1.73 µM with LOX IMVI melanoma. Also, the GI50 in the experiment on NCI-H226 lung is 9.26 µM and 6.49 µM and 4.33 µM; in the experiment with OVCAR-5 ovarian, 2.82 µM and 2.44 µM and 2.09 µM; in the experiment on SK-MEL-28 melanoma, 1.67 µM and 1.55 µM and 1.74 µM; in the experiment on EKVX NSCLC it was 2.41 µM and 2.04 µM. Further, the TGI in the experiment with M14 melanoma is 3.25 µM and 3.24 µM and 3.63 µM; with NCI-H522 lung, 3.84 µM and 3.19 µM and 3.83 µM; with NCI/ADR-RES ovarian it was 6.83 µM and 7.06 µM and 6.81 µM; in the experiment on OVCAR-8 ovarian, 6.66 µM and 5.28 µM and 5.78 µM; in the experiment with BT-549 breast, 5.61 µM and 3.77 µM and 8.64 µM; in the experiment on LOX IMVI melanoma, 2.79 µM and 2.77 µM and 3.22 µM. Besides, the TGI in the experiment on NCI-H226 lung is 28.4 µM and 23.7 µM and 17 µM; in the experiment on OVCAR-5 ovarian it was 8.23 µM and 6.35 µM and 4.77 µM; in the experiment on SK-MEL-28 melanoma, 3.04 µM and 2.94 µM and 3.28 µM; with EKVX NSCLC, 8.86 µM and 5.59 µM.

Regarding `COC(=O)c1c2c(c(C)[n+]([O-])c1C)C(=O)C(NCc1ccc(F)c(Cl)c1)=CC2=O`, the GI50 with M14 melanoma was 1.41 µM; with NCI-H522 lung, 1.82 µM; with NCI/ADR-RES ovarian, 2.08 µM; with OVCAR-8 ovarian it was 2.38 µM; with BT-549 breast, 1.88 µM; with LOX IMVI melanoma it was 2.34 µM. For the same compound, the GI50 was 2.98 µM in the experiment with NCI-H226 lung, 1.66 µM with OVCAR-5 ovarian, 3.03 µM with SK-MEL-28 melanoma and 1.93 µM in the experiment with EKVX NSCLC. The TGI with M14 melanoma is 3.12 µM; in the experiment with NCI-H522 lung, 4.7 µM; in the experiment on NCI/ADR-RES ovarian, 6.92 µM; in the experiment with OVCAR-8 ovarian, 13.9 µM; with BT-549 breast it was 5.81 µM; with LOX IMVI melanoma, 8.88 µM. For the same compound, the TGI in the experiment on NCI-H226 lung came to 9.32 µM; in the experiment with OVCAR-5 ovarian it was 3.82 µM; in the experiment on SK-MEL-28 melanoma, 13.2 µM; in the experiment with EKVX NSCLC, 5.18 µM.

Regarding `N#CC1=C(N)Oc2c(sc3c(F)cccc23)C1c1ccc([N+](=O)[O-])cc1` (stereo not given), the GI50 in the experiment on M14 melanoma was 0.111 µM; with NCI-H522 lung, 0.0776 µM; in the experiment with NCI/ADR-RES ovarian it was 0.0589 µM; in the experiment with OVCAR-8 ovarian, 0.258 µM; in the experiment on BT-549 breast, 0.242 µM; with LOX IMVI melanoma, 0.133 µM. Besides, the GI50 in the experiment on NCI-H226 lung was 0.376 µM; in the experiment on OVCAR-5 ovarian, 0.552 µM; in the experiment on SK-MEL-28 melanoma, 0.34 µM; with EKVX NSCLC, 0.432 µM. Further, the TGI with M14 melanoma worked out at 0.645 µM; with NCI-H522 lung, 0.725 µM; with NCI/ADR-RES ovarian, 0.734 µM; in the experiment on OVCAR-8 ovarian it was 1.78 µM; in the experiment on BT-549 breast, 1.3 µM; with LOX IMVI melanoma, 1.09 µM. Moreover, the TGI in the experiment on NCI-H226 lung was 1.93 µM; with OVCAR-5 ovarian, 2.26 µM; with SK-MEL-28 melanoma, 1.97 µM; with EKVX NSCLC, 2.63 µM.

With `O=C1C(Nc2ccccn2)=C(I)C(=O)c2ncccc21`, the GI50 is 1.18 µM in the experiment on M14 melanoma; 0.725 µM in the experiment on NCI-H522 lung; 1.25 µM in the experiment on NCI/ADR-RES ovarian; 1.29 µM with OVCAR-8 ovarian; 1.54 µM in the experiment on BT-549 breast; 0.305 µM in the experiment on LOX IMVI melanoma. Besides, the GI50 in the experiment with NCI-H226 lung was 1.43 µM; in the experiment on OVCAR-5 ovarian, 1.71 µM; in the experiment on SK-MEL-28 melanoma, 1.68 µM; with EKVX NSCLC, 1.62 µM. For the same compound, the TGI was 2.6 µM with M14 melanoma; 2.5 µM in the experiment with NCI-H522 lung; 4.6 µM in the experiment on NCI/ADR-RES ovarian; 5.87 µM in the experiment with OVCAR-8 ovarian; 3.14 µM in the experiment on BT-549 breast; 1.66 µM in the experiment with LOX IMVI melanoma. For the same compound, the TGI with NCI-H226 lung stood at 3.08 µM; with OVCAR-5 ovarian, 3.25 µM; in the experiment on SK-MEL-28 melanoma, 3.18 µM; with EKVX NSCLC, 3.3 µM.

Take `Cc1oc2c(c1C(=O)c1ccccc1)C(=O)c1ccccc1C2=O`: the TGI was found to be 10.1 µM in the experiment on M14 melanoma; 5.86 µM in the experiment with NCI-H522 lung; 20.7 µM with NCI/ADR-RES ovarian; 18.6 µM in the experiment with OVCAR-8 ovarian; 19.9 µM in the experiment on BT-549 breast; 7.52 µM in the experiment on LOX IMVI melanoma. Besides, the TGI in the experiment with NCI-H226 lung came to 23.3 µM; in the experiment with OVCAR-5 ovarian, 31.5 µM; in the experiment with SK-MEL-28 melanoma it was 24.3 µM; in the experiment with EKVX NSCLC, 29.6 µM.

Consider `C/C=C(/C)C(=O)OC1C=C(CO)C(=O)C(OC(=O)/C(C)=C\C)C1C(C)C` (stereo not given), for which the GI50 was 0.795 µM with M14 melanoma; 0.63 µM in the experiment with NCI-H522 lung; 1.57 µM in the experiment with NCI/ADR-RES ovarian; 0.633 µM in the experiment with OVCAR-8 ovarian; 1.45 µM in the experiment with BT-549 breast; 0.604 µM in the experiment on LOX IMVI melanoma. Further, the GI50 in the experiment on NCI-H226 lung was 2.41 µM; with OVCAR-5 ovarian, 0.976 µM; with SK-MEL-28 melanoma, 1.39 µM; in the experiment with EKVX NSCLC, 1.75 µM. Moreover, the TGI in the experiment with M14 melanoma came to 2.26 µM; in the experiment with NCI-H522 lung, 2.23 µM; in the experiment on NCI/ADR-RES ovarian, 6.11 µM; with OVCAR-8 ovarian it was 2.21 µM; in the experiment on BT-549 breast it was 2.88 µM; in the experiment with LOX IMVI melanoma, 1.75 µM. In addition, the TGI with NCI-H226 lung was 6.01 µM; with OVCAR-5 ovarian it was 2.5 µM; in the experiment on SK-MEL-28 melanoma it was 2.8 µM; with EKVX NSCLC, 3.22 µM.

`O=C(Nc1ccc(-n2cc(-c3ccncc3)c(-c3ccc(Cl)c(O)c3)n2)cc1)c1cc(Cl)cc(Cl)c1`: the GI50 was 1.95 µM in the experiment on M14 melanoma; 2.31 µM in the experiment with NCI-H522 lung; 6.1 µM in the experiment with NCI/ADR-RES ovarian; 14.4 µM with OVCAR-8 ovarian; 2.53 µM with BT-549 breast; 1.19 µM in the experiment on LOX IMVI melanoma. Also, the GI50 with NCI-H226 lung was above 100 µM; with OVCAR-5 ovarian it was 8.42 µM; in the experiment with SK-MEL-28 melanoma, 2.42 µM; with EKVX NSCLC, 50.7 µM. Also, the TGI in the experiment with M14 melanoma was 6.67 µM; in the experiment on NCI-H522 lung it was 7.94 µM; in the experiment on NCI/ADR-RES ovarian, above 100 µM; with OVCAR-8 ovarian, above 100 µM; with BT-549 breast, above 100 µM; in the experiment with LOX IMVI melanoma it was 2.62 µM. Further, the TGI in the experiment with NCI-H226 lung was above 100 µM; in the experiment with OVCAR-5 ovarian, 97.5 µM; in the experiment on SK-MEL-28 melanoma, above 30.8 µM; with EKVX NSCLC, above 100 µM.
